System: surfactant-deficient lavaged rat lungs
Assay: Isolated rat lavaged lung model (adult rat lung model), pressure-volume curve
Set-up: species or system rat (male Sprague Dawley)
Settings: for PC5 (% TLC): per cent of total lung capacity at 5 cm H2O pressure, deflation limb of P-V curve / PC10 (% TLC): per cent of total lung capacity at 10 cm H2O pressure, deflation limb of P-V curve: peptide-DPPC mixture (or DPPC alone) instilled into lavaged excised rat lungs, 25 mg phospholipid, 100-125 mg/kg, 37° C.; for RESTORATION % (per cent restoration based on PC5 values): relative to surfactant-sufficient (100) and surfactant-deficient (0) lungs, peptide-DPPC mixture or DPPC alone
Source text: Methods of testing the synthetic surfactant preparations for efficacy are well known in the art. For example, the synthetic surfactant preparations of the present invention can be tested in any appropriate manner such as in the adult rat lung model (Ikegami, et al., (1979) Pediatr. Res. 13, 777-780). Pressure-volume characteristics of surfactant-depleted rat lungs are similar to those of lungs of infants with hyaline membrane disease and restoration of the pressure-volume relationship of the lung to normal is related to the amount of surfactant instilled in a dose dependent manner. (Bermel, M. S., et al., […] excised rat lungs as a model of surfactant deficiency, Lung 162: 99-113 (1984)). The experimental procedures for animal preparation, pressure-volume curve registration and lung lavage are adapted from those described by Ikegami et al., Pediatr. Res. 11: 178-182 (1977) and Pediatr. Res. 13: 777-780 (1979, and Bermel et al, Lung 162: 99-113 (1984). Male Sprague Dawley rats (200-250 g) are anesthetized with sodium pentobarbital and exsanguinated. The trachea is cannulated and the thoracic organs are removed en bloc. After removal of the adventitious tissue, the trachea and lungs (~2 g) are suspended in saline (0.9%), placed in a vacuum chamber, and degassed according to the procedure of […] et al. the degassed lungs are suspended in saline in a 37° C., jacketed reservoir and the tracheal cannula is connected both to a water manometer and a glass syringe by a T-tube. The glass syringe is placed in an infusion/withdrawal pump. […] The total volume of air infused is recorded as the total lung capacity (TLC) which is generally 14-15 ml. The lungs are then deflated at a rate of 2.5 ml/min until zero pressure is attained. During deflation, pressure is read from the water manometer at 1 cm intervals and recorded. […] After degassing and equilibration, the lungs are rendered surfactant-deficient by repeated lavage with 5 ml/g lavage buffer (0.9% NaCl, 10 mM HEPES, pH 7.4). […] At this point, the lungs are considered surfactant-deficient. […] The mixture is then vortexed again, degassed if foamy, and 2 ml of the test mixture are introduced into and withdrawn from the lungs four times by syringe. When the test mixture is reintroduced to the lungs for the fifth time, it is allowed to remain in the lungs. This procedure is adopted to encourage even distribution of the material throughout the lung. The lungs are degassed, allowed to equilibrate at 37° C. for 5 min, and a P-V measurement is performed. Lungs are studied while supported in saline at 37° C. as opposed to ambient temperature since the physical characteristics of the surfactants may be dependent upon temperature. […] Data are presented in terms of the % TLC. […] Comparisons are based on per cent restoration=([…] ×100/(PC5 (sufficient) -PC5(deficient)) and made by one-way analysis of variance using the general linear models procedure with specific contrasts of the means (SAS Institute Inc., Cary, N.C.). […] The restoration based upon the PC5 values was used to compare the test mixtures.

Compound	effect on the pressure-volume (P-V) curves of the lavaged lung (DPPC alone, without peptide)	PC5 (% TLC): per cent of total lung capacity at 5 cm H2O pressure, deflation limb of P-V curve	PC10 (% TLC): per cent of total lung capacity at 10 cm H2O pressure, deflation limb of P-V curve	RESTORATION % (per cent restoration based on PC5 values)
CCCCCCCCCCCCCCCC(=O)OC[C@H](COP(=O)([O-])OCC[N+](C)(C)C)OC(=O)CCCCCCCCCCCCCCC [DPPC, L-α-dipalmitoylphosphatidylcholine]	no significant effect	13 ± 1 % TLC	31 ± 2 % TLC	11 ± 8%
HBB-Aoc-Glu-Trp-Ala-Lys-NH2 [SEQ ID NO: 5]	–	55 ± 4 % TLC	77 ± 2 % TLC	81 ± 7%

— US5886156A, “Synthetic peptide lung surfactants having covalently bonded antioxidants” (Merrell Pharmaceuticals Inc., priority 1996, dated 1999)
